Reference: US20260022142A1, “MACROCYCLIC IMMUNOMODULATORS” (Bristol-Myers Squibb Company, priority 2022, published 2026)
Numbered stars: 1 amine (or outer) side, 2 acyl side, 3 side chain; on linkers, the order of the positions; unused ones are H or OH. Bridge positions count the residues as written; N and C are the ends. Square brackets hold non-standard residues; d marks the D form. Peptide text beside a SMILES is read from it. * marks the point of attachment. Phe(3,4-(OMe)2) = COc1ccc(C[C@H](N)C(=O)O)cc1OC; Phe(3-CF3) = N[C@@H](Cc1cccc(C(F)(F)F)c1)C(=O)O; Ala(morpholin-4-yl) = N[C@@H](CN1CCOCC1)C(=O)O; Phe(4-COOH) = N[C@@H](Cc1ccc(C(=O)O)cc1)C(=O)O; Bip = N[C@@H](Cc1ccc(-c2ccccc2)cc1)C(=O)O; Phe(3-CN) = N#Cc1cccc(C[C@H](N)C(=O)O)c1; Phe(3-OMe) = COc1cccc(C[C@H](N)C(=O)O)c1; Phe(3-Me) = Cc1cccc(C[C@H](N)C(=O)O)c1; γGlu = O=C(O)[C@H](CCC(=O)[*:2])N[*:1]; NH(CH2)12COOH = O=C(O)CCCCCCCCCCCCN*; Val(3-OH) = CC(C)(O)[C@H](N)C(=O)O; Aha = [N-]=[N+]=NCC[C@H](N)C(=O)O; 4Pal = N[C@@H](Cc1ccncc1)C(=O)O; Cha = N[C@@H](CC1CCCCC1)C(=O)O; 3Abz = Nc1cccc(C(=O)O)c1; Carboxymethyl = O=C(O)C*; Orn = NCCC[C@H](N)C(=O)O; Pra = C#CC[C@H](N)C(=O)O; Aun = NCCCCCCCCCCC(=O)O; Dab = NCC[C@H](N)C(=O)O; Dap = NC[C@H](N)C(=O)O; AEEA = NCCOCCOCC(=O)O

Target: T1, PD-1/PD-L1 interaction (PE-labeled human PD-L1-Ig binding to Jurkat cell line over-expressing human PD-1) (Homo sapiens, UniProt Q15116)
T1 construct: expressed in transfected cells; host or cells: Jurkat
T1 sequence (Q15116 25-288): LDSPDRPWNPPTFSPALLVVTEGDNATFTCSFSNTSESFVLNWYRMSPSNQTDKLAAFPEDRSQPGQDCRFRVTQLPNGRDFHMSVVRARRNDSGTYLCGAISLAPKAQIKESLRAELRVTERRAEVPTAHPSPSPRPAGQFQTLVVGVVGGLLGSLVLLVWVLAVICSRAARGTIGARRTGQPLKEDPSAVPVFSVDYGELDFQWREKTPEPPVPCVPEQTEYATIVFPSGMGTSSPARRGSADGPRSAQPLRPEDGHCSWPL
Test: Jurkat-PD-1 Cell Binding High-Content Screening Assay (CBA)
Format: cell-based
Conditions: Jurkat cell line over-expressing human PD-1; PE-labeled PD-L1-Ig 20 nM final; read-out: Jurkat hPD1-PDL1 IC50
Outline: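 Binding of fluorescent PD-L1-Ig (20 nM final) to Jurkat-PD-1 cells was measured by automated imaging after 1 h, following a 2 h compound pre-treatment at 37° C.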

Row | Structure (SMILES) | IC50
1 | C#CC[C@H](NC(=O)[C@H](CCN)NC(=O)[C@@H]1CSCC(=O)N[C@@H](CN2CCOCC2)C(=O)N[C@@H](Cc2ccc(OCC(=O)O)cc2)C(=O)N[C@@H](CC(=O)O)C(=O)N[C@@H](Cc2cccc(C)c2)C(=O)N[C@@H](Cc2ccc(OCC(=O)O)cc2)C(=O)N[C@@H](Cc2ccc(-c3ccccc3)cc2)C(=O)N[C@@H](Cc2ccc(OCC(=O)O)cc2)C(=O)N[C@@H](CCCN)C(=O)N[C@H](CC(C)C)C(=O)N[C@@H](CCN)C(=O)N[C@@H](CC2CCCCC2)C(=O)N[C@@H](C(C)(C)O)C(=O)N[C@@H](CO)C(=O)N1)C(=O)NCCCCCCCCCCC(=O)O [Compound 1279] ({CH2CO}-[Ala(morpholin-4-yl)]Y(Carboxymethyl)D[Phe(3-Me)]Y(Carboxymethyl)[Bip]Y(Carboxymethyl)[Orn][dL][Dab][Cha][Val(3-OH)]SC[Dab][Pra][Aun]-OH; thioether N-14) | 9 nM
2 | COc1ccc(C[C@@H]2NC(=O)[C@H](Cc3cccc(C)c3)NC(=O)[C@H](CC(=O)O)NC(=O)[C@H](Cc3ccc(OCC(=O)O)cc3)NC(=O)[C@H](Cc3ccncc3)NC(=O)CSC[C@@H](C(=O)N[C@@H](CCN)C(=O)N[C@@H](CCN=[N+]=[N-])C(=O)NCCCCCCCCCCC(=O)O)NC(=O)[C@H](CO)NC(=O)[C@H](C(C)(C)O)NC(=O)[C@H](CC3CCCCC3)NC(=O)[C@H](CCN)NC(=O)[C@@H](CC(C)C)NC(=O)[C@H](CCCN)NC(=O)[C@H](Cc3ccc(OCC(=O)O)cc3)NC(=O)[C@H](Cc3ccc(-c4ccccc4)cc3)NC2=O)cc1 [Compound 1280] ({CH2CO}-[4Pal]Y(Carboxymethyl)D[Phe(3-Me)]Y(Me)[Bip]Y(Carboxymethyl)[Orn][dL][Dab][Cha][Val(3-OH)]SC[Dab][Aha][Aun]-OH; thioether N-14) | 243 nM
3 | Cc1cccc(C[C@@H]2NC(=O)[C@H](CC(=O)O)NC(=O)[C@H](Cc3ccc(OCC(=O)O)cc3)NC(=O)[C@H](CN3CCOCC3)NC(=O)CSC[C@@H](C(=O)N[C@@H](CCN)C(=O)N[C@@H](CCN=[N+]=[N-])C(=O)NCCCCCCCCCCC(=O)O)NC(=O)[C@H](CO)NC(=O)[C@H](C(C)(C)O)NC(=O)[C@H](CC3CCCCC3)NC(=O)[C@H](CCN)NC(=O)[C@@H](CC(C)C)NC(=O)[C@H](CCCN)NC(=O)[C@H](Cc3ccc(OCC(=O)O)cc3)NC(=O)[C@H](Cc3ccc(-c4ccccc4)cc3)NC(=O)[C@H](Cc3ccc(OCC(=O)O)cc3)NC2=O)c1 [Compound 1281] ({CH2CO}-[Ala(morpholin-4-yl)]Y(Carboxymethyl)D[Phe(3-Me)]Y(Carboxymethyl)[Bip]Y(Carboxymethyl)[Orn][dL][Dab][Cha][Val(3-OH)]SC[Dab][Aha][Aun]-OH; thioether N-14) | 4.7 nM
4 | CC(C)C[C@@H]1NC(=O)[C@H](Cc2c[nH]c3ccccc23)NC(=O)[C@H](CC(=O)O)NC(=O)[C@H](Cc2ccncc2)NC(=O)[C@H](Cc2ccc(OCC(=O)O)cc2)NC(=O)CSC[C@@H](C(=O)Nc2cccc(C(=O)NCCCCCCCCCCC(=O)O)c2)NC(=O)[C@H](CN)NC(=O)[C@H](C(C)C)NC(=O)[C@H](CC2CCCCC2)NC(=O)[C@H](CCN)NC(=O)[C@@H](CC(C)C)NC(=O)[C@H](CCCN)NC(=O)[C@H](C(C)C)NC(=O)[C@H](Cc2ccc(-c3ccccc3)cc2)NC1=O [Compound 1282] ({CH2CO}-Y(Carboxymethyl)[4Pal]DWL[Bip]V[Orn][dL][Dab][Cha]V[Dap]C[3Abz][Aun]-OH; thioether N-14) | 631 nM
5 | COc1ccc(C[C@@H]2NC(=O)[C@H](CC(=O)O)NC(=O)[C@H](Cc3ccc(OCC(=O)O)cc3)NC(=O)[C@H](CN)NC(=O)CSC[C@@H](C(=O)N[C@@H](CCN)C(=O)NCCOCCOCC(=O)NCCCCCCCCCCC(=O)O)NC(=O)[C@H](CCCN)NC(=O)[C@H](C(C)C)NC(=O)[C@H](CC3CCCCC3)NC(=O)[C@H](CCN)NC(=O)[C@@H](CC(C)C)NC(=O)[C@H](CCCN)NC(=O)[C@H](Cc3ccc(O)cc3)NC(=O)[C@H](Cc3ccc(-c4ccccc4)cc3)NC(=O)[C@H](C(C)C)NC2=O)cc1OC [Compound 1283] ({CH2CO}-[Dap]Y(Carboxymethyl)D[Phe(3,4-(OMe)2)]V[Bip]Y[Orn][dL][Dab][Cha]V[Orn]C[Dab][AEEA][Aun]-OH; thioether N-14) | 731 nM
6 | Cc1cccc(C[C@@H]2NC(=O)[C@H](CC(=O)O)NC(=O)[C@H](Cc3ccc(OCC(=O)O)cc3)NC(=O)[C@H](CCN)NC(=O)CSC[C@@H](C(=O)N[C@@H](CCN)C(=O)NCCOCCOCC(=O)N[C@@H](CC(=O)O)C(=O)NCCOCCOCC(=O)N[C@@H](CCC(=O)NCC(=O)NCCCCCCCCCCCCC(=O)O)C(=O)O)NC(=O)[C@H](Cc3cnc[nH]3)NC(=O)[C@H](C(C)(C)O)NC(=O)[C@H](CC3CCCCC3)NC(=O)[C@H](CCN)NC(=O)[C@@H](CC(C)C)NC(=O)[C@H](CCCN)NC(=O)[C@H](Cc3ccc(C(=O)O)cc3)NC(=O)[C@H](Cc3ccc(-c4ccccc4)cc3)NC(=O)[C@H](Cc3ccc(C(=O)O)cc3)NC2=O)c1 [Compound 1285] ({CH2CO}-[Dab]Y(Carboxymethyl)D[Phe(3-Me)][Phe(4-COOH)][Bip][Phe(4-COOH)][Orn][dL][Dab][Cha][Val(3-OH)]HC[Dab][AEEA]D[AEEA][γGlu]G-{NH(CH2)12COOH}; thioether N-14) | 6.4 nM
7 | C#CC[C@H](NC(=O)[C@H](CCN)NC(=O)[C@@H]1CSCC(=O)N[C@@H](CN2CCOCC2)C(=O)N[C@@H](Cc2ccc(OCC(=O)O)cc2)C(=O)N[C@@H](CC(=O)O)C(=O)N[C@@H](Cc2cccc(C)c2)C(=O)N[C@@H](Cc2ccc(C(=O)O)cc2)C(=O)N[C@@H](Cc2ccc(-c3ccccc3)cc2)C(=O)N[C@@H](Cc2ccc(C(=O)O)cc2)C(=O)N[C@@H](CCCN)C(=O)N[C@H](CC(C)C)C(=O)N[C@@H](CCN)C(=O)N[C@@H](CC2CCCCC2)C(=O)N[C@@H](C(C)(C)O)C(=O)N[C@@H](CO)C(=O)N1)C(=O)NCCCCCCCCCCC(=O)O [Compound 1286] ({CH2CO}-[Ala(morpholin-4-yl)]Y(Carboxymethyl)D[Phe(3-Me)][Phe(4-COOH)][Bip][Phe(4-COOH)][Orn][dL][Dab][Cha][Val(3-OH)]SC[Dab][Pra][Aun]-OH; thioether N-14) | 5.6 nM
8 | CC(C)C[C@H]1NC(=O)[C@H](CCCN)NC(=O)[C@H](Cc2ccc(O)cc2)NC(=O)[C@H](Cc2ccc(-c3ccccc3)cc2)NC(=O)[C@H](Cc2ccc(OCC(=O)O)cc2)NC(=O)[C@H](Cc2cccc(C(F)(F)F)c2)NC(=O)[C@H](CC(=O)O)NC(=O)[C@H](Cc2ccc(OCC(=O)O)cc2)NC(=O)[C@H](CN)NC(=O)CSC[C@@H](C(=O)N[C@@H](CCN)C(=O)NCCOCCOCC(=O)NCCCCCCCCCCC(=O)O)NC(=O)[C@H](CCCN)NC(=O)[C@H](C(C)C)NC(=O)[C@H](CC2CCCCC2)NC(=O)[C@H](CCN)NC1=O [Compound 1287] ({CH2CO}-[Dap]Y(Carboxymethyl)D[Phe(3-CF3)]Y(Carboxymethyl)[Bip]Y[Orn][dL][Dab][Cha]V[Orn]C[Dab][AEEA][Aun]-OH; thioether N-14) | 8.2 nM
9 | CC(C)C[C@H]1NC(=O)[C@H](CCCN)NC(=O)[C@H](Cc2ccc(O)cc2)NC(=O)[C@H](Cc2ccc(-c3ccccc3)cc2)NC(=O)[C@H](C(C)C)NC(=O)[C@H](Cc2cccc(C(F)(F)F)c2)NC(=O)[C@H](CC(=O)O)NC(=O)[C@H](Cc2ccc(OCC(=O)O)cc2)NC(=O)[C@H](CN)NC(=O)CSC[C@@H](C(=O)N[C@@H](CCN)C(=O)NCCOCCOCC(=O)NCCCCCCCCCCC(=O)O)NC(=O)[C@H](CCCN)NC(=O)[C@H](C(C)C)NC(=O)[C@H](CC2CCCCC2)NC(=O)[C@H](CCN)NC1=O [Compound 1288] ({CH2CO}-[Dap]Y(Carboxymethyl)D[Phe(3-CF3)]V[Bip]Y[Orn][dL][Dab][Cha]V[Orn]C[Dab][AEEA][Aun]-OH; thioether N-14) | 10.3 nM
10 | COc1cccc(C[C@@H]2NC(=O)[C@H](CC(=O)O)NC(=O)[C@H](Cc3ccc(OCC(=O)O)cc3)NC(=O)[C@H](CN)NC(=O)CSC[C@@H](C(=O)N[C@@H](CCN)C(=O)NCCOCCOCC(=O)NCCCCCCCCCCC(=O)O)NC(=O)[C@H](CCCN)NC(=O)[C@H](C(C)C)NC(=O)[C@H](CC3CCCCC3)NC(=O)[C@H](CCN)NC(=O)[C@@H](CC(C)C)NC(=O)[C@H](CCCN)NC(=O)[C@H](Cc3ccc(O)cc3)NC(=O)[C@H](Cc3ccc(-c4ccccc4)cc3)NC(=O)[C@H](C(C)C)NC2=O)c1 [Compound 1289] ({CH2CO}-[Dap]Y(Carboxymethyl)D[Phe(3-OMe)]V[Bip]Y[Orn][dL][Dab][Cha]V[Orn]C[Dab][AEEA][Aun]-OH; thioether N-14) | 10.9 nM
11 | CC(C)C[C@H]1NC(=O)[C@H](CCCN)NC(=O)[C@H](Cc2ccc(O)cc2)NC(=O)[C@H](Cc2ccc(-c3ccccc3)cc2)NC(=O)[C@H](C(C)C)NC(=O)[C@H](Cc2c[nH]c3ccccc23)NC(=O)[C@H](CC(=O)O)NC(=O)[C@H](Cc2ccc(OCC(=O)O)cc2)NC(=O)[C@H](CN)NC(=O)CSC[C@@H](C(=O)N[C@@H](CCN)C(=O)NCCOCCOCC(=O)NCCCCCCCCCCC(=O)O)NC(=O)[C@H](CCCN)NC(=O)[C@H](C(C)C)NC(=O)[C@H](CC2CCCCC2)NC(=O)[C@H](CCN)NC1=O [Compound 1290] ({CH2CO}-[Dap]Y(Carboxymethyl)DWV[Bip]Y[Orn][dL][Dab][Cha]V[Orn]C[Dab][AEEA][Aun]-OH; thioether N-14) | 12.5 nM
12 | CC(C)C[C@H]1NC(=O)[C@H](CCCN)NC(=O)[C@H](Cc2ccc(O)cc2)NC(=O)[C@H](Cc2ccc(-c3ccccc3)cc2)NC(=O)[C@H](C(C)C)NC(=O)[C@H](Cc2cccc(C#N)c2)NC(=O)[C@H](CC(=O)O)NC(=O)[C@H](Cc2ccc(OCC(=O)O)cc2)NC(=O)[C@H](CN)NC(=O)CSC[C@@H](C(=O)N[C@@H](CCN)C(=O)NCCOCCOCC(=O)NCCCCCCCCCCC(=O)O)NC(=O)[C@H](CCCN)NC(=O)[C@H](C(C)C)NC(=O)[C@H](CC2CCCCC2)NC(=O)[C@H](CCN)NC1=O [Compound 1291] ({CH2CO}-[Dap]Y(Carboxymethyl)D[Phe(3-CN)]V[Bip]Y[Orn][dL][Dab][Cha]V[Orn]C[Dab][AEEA][Aun]-OH; thioether N-14) | 14.7 nM
